Source: patent US20260115346A1, “METHOD AND DEVICE FOR DI[…]/OR S[…]” (SCHWING TECHNOLOGIES GMBH, priority 2022, published 2026)

Columns and labels:
[1] = tested on: germs; assay: Disinfection and sterilization process on various objects, number of germs after treatment; settings: 55° C., 20 mbar; for Number of germs/m^3 after disinfection: 1.5 g/m^3 PES, 15 min; for Number of germs/m^3 after sterilization: 4 g/m^3 PES, 30 min
Description: Various objects were treated with the method according to the invention in order to disinfect and sterilize them.
The following process parameters were used in the disinfection process:
The following process parameters were used in the sterilization process: […]

[2] = tested on: spores of the bacterium Geobacillus stearothermophilis; assay: Validation tests for disinfection of laboratory utensils dripped with spore suspension SAL 10^6; assay type: cell-based, Geobacillus stearothermophilus; settings: for Biological result #not sterile/#tested: PES in solution 4%
[3] = tested on: human patellar tendon allografts; settings: in vitro study; cited from earlier work
[4] = tested on: spores of the bacterium Geobacillus stearothermophilis; assay: Validation tests for disinfection of spore strips SAL 10^5; assay type: cell-based, Geobacillus stearothermophilus; settings: for Biological result #not sterile/#tested: 50-55° C.
[5] = object: Mobile electronic display device

CC(=O)OO [PES, peracetic acid]
Number of germs/m^3 after disinfection ([1]; object: FFP mask): 1220 germs/m^3 | Number of germs/m^3 after sterilization ([1]; object: FFP mask): germ-free | Number of germs/m^3 after disinfection ([1]; object: Infusomat): 1160 germs/m^3 | Number of germs/m^3 after sterilization ([1]; object: Infusomat): germ-free | Number of germs/m^3 after disinfection ([1]; object: MNS): 870 germs/m^3 | Number of germs/m^3 after sterilization ([1]; object: MNS): germ-free | Number of germs/m^3 after disinfection [1, 5]: 430 germs/m^3 | Number of germs/m^3 after sterilization [1, 5]: germ-free | Number of germs/m^3 after disinfection ([1]; object: Surgical clogs): 1370 germs/m^3 | Number of germs/m^3 after sterilization ([1]; object: Surgical clogs): germ-free | Number of germs/m^3 after disinfection ([1]; object: blower filter unit): 1740 germs/m^3 | Number of germs/m^3 after sterilization ([1]; object: blower filter unit): germ-free | Number of germs/m^3 after disinfection ([1]; object: disposable gloves): 920 germs/m^3 | Number of germs/m^3 after sterilization ([1]; object: disposable gloves): germ-free | Number of germs/m^3 after disinfection ([1]; object: protective overalls): 270 germs/m^3 | Number of germs/m^3 after sterilization ([1]; object: protective overalls): germ-free | Number of germs/m^3 after disinfection ([1]; object: visor): 360 germs/m^3 | Number of germs/m^3 after sterilization ([1]; object: visor): germ-free | Biological result #not sterile/#tested ([2]; test 5, 1.9 g/m^3 PES in process chamber, 120 min, growth after seven days): 0/4 | Biological result #not sterile/#tested ([2]; test 7, 1.9 g/m^3 PES in process chamber, 60 min, growth after seven days): 0/4 | Biological result #not sterile/#tested ([2]; test 8, 1.9 g/m^3 PES in process chamber, 45 min, growth after seven days): 0/4 | Biological result #not sterile/#tested ([2]; test 12, 1.9 g/m^3 PES in process chamber, 15 min, growth after seven days): 0/4 | Biological result #not sterile/#tested ([2]; test 13, 1.9 g/m^3 PES in process chamber, 10 min, growth after seven days): 0/4 | Biological result #not sterile/#tested ([2]; test 14, 1.9 g/m^3 PES in process chamber, 5 min, growth after seven days): 0/4 | Biological result #not sterile/#tested ([2]; test 15, 1.7 g/m^3 PES in process chamber, 20 min, growth after seven days): 0/4 | Biological result #not sterile/#tested ([2]; test 16, 1.7 g/m^3 PES in process chamber, 15 min, growth after seven days): 0/4 | Biological result #not sterile/#tested ([2]; test 19, 1.3 g/m^3 PES in process chamber, 20 min, growth after seven days): 0/4 | Biological result #not sterile/#tested ([2]; test 20, 1.3 g/m^3 PES in process chamber, 15 min, growth after seven days): 0/4 | Biological result #not sterile/#tested ([2]; test 21, 0.94 g/m^3 PES in process chamber, 60 min, growth after seven days): 0/4 | Biological result #not sterile/#tested ([2]; test 22, 0.94 g/m^3 PES in process chamber, 40 min, growth after seven days): 0/4 | Biological result #not sterile/#tested ([2]; test 23, 0.94 g/m^3 PES in process chamber, 30 min, not sterile: pipette): (pipette) 1/8 | Biological result #not sterile/#tested ([2]; test 24, 0.94 g/m^3 PES in process chamber, 20 min, growth after seven days): 0/8 | Biological result #not sterile/#tested ([2]; test 25, 0.94 g/m^3 PES in process chamber, 15 min, not sterile: pipette): (pipette) 1/4 | Biological result #not sterile/#tested ([2]; test 26, 0.94 g/m^3 PES in process chamber, 10 min, growth after seven days): 0/4 | Biological result #not sterile/#tested ([2]; test 27, 0.94 g/m^3 PES in process chamber, 5 min, not sterile: pipette): (pipette) 1/4 | Biological result #not sterile/#tested ([2]; test 28, 0.47 g/m^3 PES in process chamber, 60 min, growth after seven days): 0/4 | Biological result #not sterile/#tested ([2]; test 29, 0.47 g/m^3 PES in process chamber, 30 min, growth after seven days): 0/4 | Biological result #not sterile/#tested ([2]; test 30, 0.47 g/m^3 PES in process chamber, 15 min, not sterile: Eppi): (Eppi) 1/4 | Biological result #not sterile/#tested ([2]; test 31, 0.47 g/m^3 PES in process chamber, 10 min, not sterile: pipette): (pipette) 1/4 | Biological result #not sterile/#tested ([2]; test 32, 0.47 g/m^3 PES in process chamber, 5 min, not sterile: mask, pipette): (mask, pipette) 2/4 | growth of the spores after seven days in nutrient solution ([2]; various experiments, relatively low PES concentration in the process chamber, short process duration): spore growth was observed after seven days | cytotoxic or pro-inflammatory effect [3]: no cytotoxic or pro-inflammatory effect | subsequent growth or multiplication of the spores ([4]; all the spore strips tested at different PES concentrations and different process times): No subsequent growth or multiplication of the spores could be detected | Biological result #not sterile/#tested ([4]; test 1, PES in solution 6%, 3 g/m^3 PES in process chamber, 240 min): 0/2 | Biological result #not sterile/#tested ([4]; test 2, PES in solution 6%, 3 g/m^3 PES in process chamber, 120 min): 0/1 | Biological result #not sterile/#tested ([4]; test 3, PES in solution 6%, 1.7 g/m^3 PES in process chamber, 150 min): 0/2 | Biological result #not sterile/#tested ([4]; test 4, PES in solution 4%, 2 g/m^3 PES in process chamber, 120 min): 0/1 | Biological result #not sterile/#tested ([4]; test 5, PES in solution 4%, 1.9 g/m^3 PES in process chamber, 120 min): 0/2 | Biological result #not sterile/#tested ([4]; test 6, PES in solution 4%, 1.9 g/m^3 PES in process chamber, 90 min): 0/2 | Biological result #not sterile/#tested ([4]; test 7, PES in solution 4%, 1.9 g/m^3 PES in process chamber, 60 min): 0/4 | Biological result #not sterile/#tested ([4]; test 8, PES in solution 4%, 1.9 g/m^3 PES in process chamber, 45 min): 0/1 | Biological result #not sterile/#tested ([4]; test 9, PES in solution 4%, 1.9 g/m^3 PES in process chamber, 40 min): 0/2 | Biological result #not sterile/#tested ([4]; test 10, PES in solution 4%, 1.9 g/m^3 PES in process chamber, 30 min): 0/2 | Biological result #not sterile/#tested ([4]; test 11, PES in solution 4%, 1.9 g/m^3 PES in process chamber, 20 min): 0/2 | Biological result #not sterile/#tested ([4]; test 12, PES in solution 4%, 1.9 g/m^3 PES in process chamber, 15 min): 0/1 | Biological result #not sterile/#tested ([4]; test 13, PES in solution 4%, 1.9 g/m^3 PES in process chamber, 10 min): 0/1 | Biological result #not sterile/#tested ([4]; test 14, PES in solution 4%, 1.9 g/m^3 PES in process chamber, 5 min): 0/1 | Biological result #not sterile/#tested ([4]; test 15, PES in solution 4%, 1.7 g/m^3 PES in process chamber, 20 min): 0/1 | Biological result #not sterile/#tested ([4]; test 16, PES in solution 4%, 1.7 g/m^3 PES in process chamber, 15 min): 0/1 | Biological result #not sterile/#tested ([4]; test 17, PES in solution 4%, 1.5 g/m^3 PES in process chamber, 240 min): 0/2 | Biological result #not sterile/#tested ([4]; test 18, PES in solution 4%, 1.5 g/m^3 PES in process chamber, 150 min): 0/2 | Biological result #not sterile/#tested ([4]; test 19, PES in solution 4%, 1.3 g/m^3 PES in process chamber, 20 min): 0/1 | Biological result #not sterile/#tested ([4]; test 20, PES in solution 4%, 1.3 g/m^3 PES in process chamber, 15 min): 0/1 | Biological result #not sterile/#tested ([4]; test 21, PES in solution 4%, 0.94 g/m^3 PES in process chamber, 60 min): 0/5 | Biological result #not sterile/#tested ([4]; test 22, PES in solution 4%, 0.94 g/m^3 PES in process chamber, 40 min): 0/1 | Biological result #not sterile/#tested ([4]; test 23, PES in solution 4%, 0.94 g/m^3 PES in process chamber, 30 min): 0/2 | Biological result #not sterile/#tested ([4]; test 24, PES in solution 4%, 0.94 g/m^3 PES in process chamber, 20 min): 0/2 | Biological result #not sterile/#tested ([4]; test 25, PES in solution 4%, 0.94 g/m^3 PES in process chamber, 15 min): 0/1 | Biological result #not sterile/#tested ([4]; test 26, PES in solution 4%, 0.94 g/m^3 PES in process chamber, 10 min): 0/1 | Biological result #not sterile/#tested ([4]; test 27, PES in solution 4%, 0.94 g/m^3 PES in process chamber, 5 min): 0/1 | Biological result #not sterile/#tested ([4]; test 28, PES in solution 4%, 0.47 g/m^3 PES in process chamber, 60 min): 0/1 | Biological result #not sterile/#tested ([4]; test 29, PES in solution 4%, 0.47 g/m^3 PES in process chamber, 30 min): 0/1 | Biological result #not sterile/#tested ([4]; test 30, PES in solution 4%, 0.47 g/m^3 PES in process chamber, 15 min): 0/1 | Biological result #not sterile/#tested ([4]; test 31, PES in solution 4%, 0.47 g/m^3 PES in process chamber, 10 min): 0/1 | Biological result #not sterile/#tested ([4]; test 32, PES in solution 4%, 0.47 g/m^3 PES in process chamber, 5 min): 0/1
